According to patent publication US20170274014A1, “COMBINATIONS OF LOW, IMMUNE ENHANCING, DOSES OF MTOR INHIBITORS AND CARS” (Novartis AG, priority 2014, published 2017):
Where two headings read alike, the source gives them in different places.

Assays:
[1] = tested on: H1N1 A/California/07/2009; experiment: Hemagglutination inhibition titers after seasonal influenza vaccination, A/H1N1 vaccine strain; assay type: in vivo, human; conditions: for HI GMT A/H1N1, Baseline: 2 weeks prior to influenza vaccination; for HI GMT A/H1N1, Week 4: 4 weeks after influenza vaccination
Procedure: (§1) The trial was observer-blind because the placebo in the RAD001 0.5 mg daily and 20 mg weekly cohorts differed slightly from the RAD001 tablets in those cohorts. […] The treatment duration for all cohorts was 6 weeks during which time subjects underwent safety evaluations in the clinic every 2 weeks. After subjects had been dosed for 4 weeks, RAD001 steady state levels were measured pre-dose and at one hour post dose. After completing the 6 week course of study drug, subjects were given a 2 week drug free break to reverse any possible RAD001-induced immunosuppression, and then were given a 2012 seasonal influenza vaccination (Agrippal®, Novartis Vaccines and Diagnostics, Siena, Italy) containing the strains H1N1 A/California/07/2009, H3N2 A/Victoria/210/2009, B/Brisbane/60/2008. Four weeks after influenza vaccination, subjects had serum collected for influenza titer measurements. Antibody titers to the 3 influenza vaccine strains as well as to 2 heterologous strains (A/H1N1 strain A/New Jersey/8/76 and A/H3N2 strain A/Victoria/361/11) were measured by standard hemagglutination inhibition assay (Kendal, A P et al. (1982) Concepts and procedures for laboratory-based influenza surveillance. Atlanta: Centers for Disease Control and Prevention B17-B35). Levels of IgG and IgM specific for the A/H1N1/California/07/2009 were measured in serum samples taken before and 4 weeks after influenza vaccination as described previously (Spensieri, F. et al. (2013) Proc. Natl. Acad. Sci. USA 110:14330-14335). Results were expressed as fluorescence intensity.
(§2) The primary analysis of geometric mean titer ratios was done using a normal Bayesian regression model with non-informative priors. This model was fitted to each antibody titer on the log scale. The primary outcome in each model was the Day 84 measurement. The Day 63 measurement was included in the outcome vector. The model fitted using SAS 9.2 proc mixed with the prior statement. The covariance structure of the matrix was considered as unstructured (option type=UN). A flat prior was used. For the secondary analysis of seroconversion rates, logistic regression was used.
(§3) The ability of RAD001 to improve immune function in elderly volunteers was evaluated by measuring the serologic response to the 2012 seasonal influenza vaccine. The hemagglutination inhibition (HI) geometric mean titers (GMT) to each of the 3 influenza vaccine strains at baseline and 4 weeks after influenza vaccination are provided in Table 6. The primary analysis variable was the HI GMT ratio (4 weeks post vaccination/baseline).
(§4) Rates of seroconversion 4 weeks after influenza vaccination were also evaluated. Seroconversion was defined as the change from a negative pre-vaccination titer (i.e., HI titer <1:10) to post-vaccination HI titer ≧1:40 or at least 4-fold increase from a non-negative (≧1:10) pre-vaccination HI titer.

H3N2 A/Victoria/210/2009 = experiment: Hemagglutination inhibition titers after seasonal influenza vaccination, A/H3N2 vaccine strain; assay type: in vivo, human; conditions: for HI GMT A/H3N2, Baseline: 2 weeks prior to influenza vaccination; for HI GMT A/H3N2, Week 4: 4 weeks after influenza vaccination
Procedure: as §1, §2, §3, §4

B/Brisbane/60/2008 = experiment: Hemagglutination inhibition titers after seasonal influenza vaccination, B vaccine strain; assay type: in vivo, human; conditions: for HI GMT B, Baseline: 2 weeks prior to influenza vaccination; for HI GMT B, Week 4: 4 weeks after influenza vaccination
Procedure: as §1, §2, §3, §4

[2] = PK analysis of RAD001 in blood of tumor bearing NSG mice; assay type: in vivo; conditions: for concentration at 24 h: mouse, whole blood
Procedure: RAD001 dosing: A concentrated micro-emulsion of 50 mg equal to 1 mg RAD001 was formulated and then resuspended in D5W (dextrose 5% in water) at the time of dosing. Mice were orally dosed daily (via oral gavage) with 200 μl of the desired doses of RAD001.
PK analysis: Mice were dosed daily with RAD001 starting 7 days post tumor implantation. Dosing groups were as follows: 0.3 mg/kg, 1 mg/kg, 3 mg/kg, and 10 mg/kg. Mice were bled on days 0 and 14 following the first and last dose of RAD001, at the following time points for PK analysis: 15 minutes, 30 minutes, 1 hour, 2 hours, 4 hours, 8 hours, 12 hours, and 24 hours.

huCAR19 CAR T cells = experiment: CAR T cell expansion in vivo in NSG mice with NALM6-luc tumors (FACS); conditions: lowest doses of RAD001, daily oral; more evident and prolonged with CD4+ than CD8+ CAR T cells
pneumococcal serotypes = conditions: all 3 RAD cohorts; 7 of 23 serotypes measured
[3] = Intention to Treat Population, 0.5 mg, N = 48
[4] = Intention to Treat Population, 5 mg, N = 49
[5] = Intention to Treat Population, 20 mg, N = 48
[6] = Subjects with Baseline Titers <=40, 0.5 mg
[7] = Subjects with Baseline Titers <=40, 5 mg
[8] = Subjects with Baseline Titers <=40, 20 mg

For `CO[C@H]1C[C@@H]2CC[C@@H](C)[C@@](O)(O2)C(=O)C(=O)N2CCCC[C@H]2C(=O)O[C@H]([C@H](C)C[C@@H]2CC[C@@H](OCCO)[C@H](OC)C2)CC(=O)[C@H](C)/C=C(\C)[C@@H](O)[C@@H](OC)C(=O)[C@H](C)C[C@H](C)/C=C/C=C/C=C/1C` [RAD001, (1R,9S,12S,15R,16E,18R,19R,21R,23S,24E,26E,28E,30S,32S,35R)-1,18-dihydroxy-12-{(1R)-2-[(1S,3R,4R)-4-(2-hydroxyethoxy)-3-methoxycyclohexyl]-1-methylethyl}-19,30-dimethoxy-15,17,21,23,29,35-hexamethyl-11,36-dioxa-4-aza-tricyclo[30.3.1.04,9]hexatriaconta-16,24,26,28-tetraene-2,3,10,14,20-pentaone], the “HI GMT ratio A/H1N1 (week 4 post vaccination/baseline)” value ([1]; 0.5 mg daily, N = 50) was 2.6, the “HI GMT A/H1N1, Baseline” value ([1]; 0.5 mg daily, N = 50) was 102.8 and the “HI GMT A/H1N1, Week 4” value ([1]; 0.5 mg daily, N = 50) was 190.2. For the same compound, the “HI GMT ratio A/H1N1 (week 4 post vaccination/baseline)” value ([1]; 5 mg weekly, N = 49) was 2.5, the “HI GMT A/H1N1, Baseline” value ([1]; 5 mg weekly, N = 49) was 84.2 and the “HI GMT A/H1N1, Week 4” value ([1]; 5 mg weekly, N = 49) was 198.73. The “HI GMT ratio A/H1N1 (week 4 post vaccination/baseline)” value ([1]; 20 mg weekly, N = 49) was 1.8, the “HI GMT A/H1N1, Baseline” value ([1]; 20 mg weekly, N = 49) was 90.1 and the “HI GMT A/H1N1, Week 4” value ([1]; 20 mg weekly, N = 49) was 129.7. For the same compound, the “Percent of subjects with seroconversion to influenza H1N1 4 weeks after vaccination” value [1, 3] was 27%, the “Percent of subjects with seroconversion to influenza H1N1 4 weeks after vaccination” value [1, 4] was 27% and the “Percent of subjects with seroconversion to influenza H1N1 4 weeks after vaccination” value [1, 5] was 17%. For the same compound, the “Percent of subjects with seroconversion to influenza H1N1 4 weeks after vaccination” value [1, 6] was 42%, the “Percent of subjects with seroconversion to influenza H1N1 4 weeks after vaccination” value [1, 7] was 45% and the “Percent of subjects with seroconversion to influenza H1N1 4 weeks after vaccination” value [1, 8] was 36%. For the same compound, the “HI GMT ratio A/H3N2 (week 4 post vaccination/baseline)” value (H3N2 A/Victoria/210/2009; 0.5 mg daily, N = 50) was 2.1, the “HI GMT A/H3N2, Baseline” value (H3N2 A/Victoria/210/2009; 0.5 mg daily, N = 50) was 106.8 and the “HI GMT A/H3N2, Week 4” value (H3N2 A/Victoria/210/2009; 0.5 mg daily, N = 50) was 194.4. For the same compound, the “HI GMT ratio A/H3N2 (week 4 post vaccination/baseline)” value (H3N2 A/Victoria/210/2009; 5 mg weekly, N = 49) was 2.0, the “HI GMT A/H3N2, Baseline” value (H3N2 A/Victoria/210/2009; 5 mg weekly, N = 49) was 126.04 and the “HI GMT A/H3N2, Week 4” value (H3N2 A/Victoria/210/2009; 5 mg weekly, N = 49) was 223.0. For the same compound, the “HI GMT ratio A/H3N2 (week 4 post vaccination/baseline)” value (H3N2 A/Victoria/210/2009; 20 mg weekly, N = 49) was 2.1, the “HI GMT A/H3N2, Baseline” value (H3N2 A/Victoria/210/2009; 20 mg weekly, N = 49) was 137.1 and the “HI GMT A/H3N2, Week 4” value (H3N2 A/Victoria/210/2009; 20 mg weekly, N = 49) was 223.0. For the same compound, the “Percent of subjects with seroconversion to influenza H3N2 4 weeks after vaccination” value (H3N2 A/Victoria/210/2009; [3]) was 27%, the “Percent of subjects with seroconversion to influenza H3N2 4 weeks after vaccination” value (H3N2 A/Victoria/210/2009; [4]) was 24% and the “Percent of subjects with seroconversion to influenza H3N2 4 weeks after vaccination” value (H3N2 A/Victoria/210/2009; [5]) was 25%. For the same compound, the “Percent of subjects with seroconversion to influenza H3N2 4 weeks after vaccination” value (H3N2 A/Victoria/210/2009; [6]) was 64%, the “Percent of subjects with seroconversion to influenza H3N2 4 weeks after vaccination” value (H3N2 A/Victoria/210/2009; [7]) was 53% and the “Percent of subjects with seroconversion to influenza H3N2 4 weeks after vaccination” value (H3N2 A/Victoria/210/2009; [8]) was 71%. For the same compound, the “HI GMT ratio B (week 4 post vaccination/baseline)” value (B/Brisbane/60/2008; 0.5 mg daily, N = 50) was 2.5, the “HI GMT B, Baseline” value (B/Brisbane/60/2008; 0.5 mg daily, N = 50) was 44.2 and the “HI GMT B, Week 4” value (B/Brisbane/60/2008; 0.5 mg daily, N = 50) was 98.4. For the same compound, the “HI GMT ratio B (week 4 post vaccination/baseline)” value (B/Brisbane/60/2008; 5 mg weekly, N = 49) was 2.2, the “HI GMT B, Baseline” value (B/Brisbane/60/2008; 5 mg weekly, N = 49) was 64.8 and the “HI GMT B, Week 4” value (B/Brisbane/60/2008; 5 mg weekly, N = 49) was 117.3. The “HI GMT ratio B (week 4 post vaccination/baseline)” value (B/Brisbane/60/2008; 20 mg weekly, N = 49) was 2.1, the “HI GMT B, Baseline” value (B/Brisbane/60/2008; 20 mg weekly, N = 49) was 58.0 and the “HI GMT B, Week 4” value (B/Brisbane/60/2008; 20 mg weekly, N = 49) was 99.2. For the same compound, the “Percent of subjects with seroconversion to influenza B 4 weeks after vaccination” value (B/Brisbane/60/2008; [3]) was 27%, the “Percent of subjects with seroconversion to influenza B 4 weeks after vaccination” value (B/Brisbane/60/2008; [4]) was 22% and the “Percent of subjects with seroconversion to influenza B 4 weeks after vaccination” value (B/Brisbane/60/2008; [5]) was 19%. For the same compound, the “Percent of subjects with seroconversion to influenza B 4 weeks after vaccination” value (B/Brisbane/60/2008; Subjects with Baseline Titers <=40, 0.5 mg, * p < 0.05 vs placebo) was 40* Percent, the “Percent of subjects with seroconversion to influenza B 4 weeks after vaccination” value (B/Brisbane/60/2008; [7]) was 33% and the “Percent of subjects with seroconversion to influenza B 4 weeks after vaccination” value (B/Brisbane/60/2008; [8]) was 28%. The concentration at 24 h ([2]; NSG, lowest dose tested (0.3 mg/kg) oral daily, day 0 and day 14, read-out: RAD001 concentration in the blood 24 hours after dosing) was greater than 10 nM, the “Stability in the blood of tumor bearing mice” value ([2]; daily oral dosing, day 0 and day 14 PK) was “fairly stable” and the concentration at 24 h ([2]; 0.3 mg/kg, NSG mice, daily oral dosing, read-out: Concentration of RAD001 24 hours after the final dose) was greater than 10 nM. For the same compound, the “Proliferation of the CAR T cells in vivo” value (huCAR19 CAR T cells) was “enhanced proliferation” and the “Pneumococcal serotypes with increased antibody titers compared to placebo” value (pneumococcal serotypes) was 6/7.
